Target: T1, LANCL2 protein (Homo sapiens, UniProt Q9NS86)
T1 construct: made in house; host or cells: Pichia pastoris
T1 sequence (Q9NS86 1-450): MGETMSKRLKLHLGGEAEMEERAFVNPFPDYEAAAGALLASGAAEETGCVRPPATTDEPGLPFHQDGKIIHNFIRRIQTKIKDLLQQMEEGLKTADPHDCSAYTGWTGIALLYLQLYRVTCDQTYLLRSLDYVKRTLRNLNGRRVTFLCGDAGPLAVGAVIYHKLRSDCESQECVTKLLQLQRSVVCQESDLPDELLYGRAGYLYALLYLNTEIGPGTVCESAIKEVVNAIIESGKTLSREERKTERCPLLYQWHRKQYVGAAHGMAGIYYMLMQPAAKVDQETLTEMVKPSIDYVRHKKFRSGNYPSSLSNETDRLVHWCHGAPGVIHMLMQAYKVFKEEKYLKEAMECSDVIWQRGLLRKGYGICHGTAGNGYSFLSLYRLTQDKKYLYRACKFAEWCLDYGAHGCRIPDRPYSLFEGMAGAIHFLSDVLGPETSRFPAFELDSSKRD
Assay: Surface plasmon resonance binding to LANCL2 (Biacore T200)
Details: SPR, immobilized LANCL2, analyte 0-40 μM
Method: LANCL2 production and purification. LANCL2 was cloned into E. coli, amplified and transfected in Pichia pastoris. P. pastoris was plated onto adenine selective media. Stable transfected colonies were selected and grown within YPD broth at 30° C. for 24 hours, 240 RPM shaking. Starter culture was used to inoculate base media (1% yeast extract, 2% peptone, 1% sorbitol, 2% yeast nitrogen base) containing biotin and buffered with potassium phosphate. Inoculated base media was incubated for 48 hours at 30° C., 240 RPM. P. pastoris was then pelleted by centrifugation and resuspended in expression media (1% sorbitol, 2% yeast nitrogen base) containing biotin and buffered with potassium phosphate. Culture was induced daily for protein production through addition of methanol and incubated for a total of 4 days at 28° C., 240 RPM. After incubation, cells were pelleted by centrifugation and lysed by sonication. Recombinant LANCL2 protein was purified by fast protein liquid chromatography (AktaPrime) using immobilized metal affinity chromatography. Fractions of protein were eluted in 1 mL aliquots and evaluated for LANCL2 content.
Surface plasmon resonance. A Biacore T200 was used to evaluate binding to the LANCL2 protein. Protein was immobilized onto the CMS sensor chip. […] Based on the immobilized response values, theoretical Rmax values were calculated. […]

Q: Which Kd does the source give for `O=C(CN1CCN(C(=O)c2cccc(-c3nc4ccccc4[nH]3)n2)CC1)c1ccccc1` [BT-63, 2-(4-(6-(1H-benzo[d]imidazol-2-yl)picolinoyl)piperazin-1-yl)-1-phenylethanone] here?
A: 2740 nM
